Test results reported in patent publication US3954875A, “Benzophenone herbicides” (Rohm and Haas Company, priority 1973, dated 1976).

Tests used:
[1] = tested on: Monocots; assay: Preemergence weed control in flats (Example 14, Table II), monocot weeds; type: in vivo; conditions: about 2 weeks after application
Description: (§1) Using the procedure described below, the benzophenones of Examples 1 and 2 were evaluated for control of the following weeds:
Barnyardgrass (Echinochloa crusgalli)
Crabgrass (Digitaria spp.)
Foxtail (Setaria italica)
Johnsongrass (Sorghum halepense)
Quackgrass (Agropyron repens)
Yellow millet (Panicum miliaceaum)
Wild oats (Sesbania spp.)
(§2) The following test procedure is employed. Seeds of selected weeds are planted in soil in flats, and the flats are treated with the test compound immediately after the planting. The compound to be evaluated is dissolved in acetone, diluted with water, and sprayed over the flats using a carrier volume equivalent to 50 gallons per acre at the rate of application (pounds per acre, lb/A.) specified in the tables. About 2 weeks after the application of the test compound, the state of growth of the plants is observed and the phytotoxic effect of the compound is evaluated. Table II gives the average percent control achieved by the test compounds in terms of the percent of the plants which are killed by the compounds.

[2] = tested on: Dicots; assay: Preemergence weed control in flats (Example 14, Table II), dicot weeds; type: in vivo; conditions: about 2 weeks after application
Description: as §1
Coffeeweed (Sesbania spp.)
velvetleaf (Abutilon theophrasti)
as §2

| SMILES | % Control, Monocots (average percent of the plants killed) ([1]; 2 lb./A.) [%] | % Control, Monocots (average percent of the plants killed) ([1]; 4 lb./A.) [%] | % Control, Monocots (average percent of the plants killed) ([1]; 8 lb./A.) [%] | % Control, Dicots (average percent of the plants killed) ([2]; 2 lb./A.) [%] | % Control, Dicots (average percent of the plants killed) ([2]; 4 lb./A.) [%] | % Control, Dicots (average percent of the plants killed) ([2]; 8 lb./A.) [%] |
| --- | --- | --- | --- | --- | --- | --- |
| COc1ccc(C(=O)c2cccc(C(F)(F)F)c2)cc1C [Example 1, 4-methoxy-3-methyl-3'-trifluoromethylbenzophenone] | 91 | 97 | 99 | 65 | 70 | 85 |
| COc1ccc(C(=O)c2cccc(C)c2)cc1C [Example 2, 4-methoxy-3,3'-dimethylbenzophenone] | 88 | 93 | 100 | 60 | 55 | 65 |
